From patent publication US8796246B2, “9, 10-secopregnane derivative and pharmaceutical” (Nippon Shinyaku Co., Ltd., priority 2006, dated 2014)

Columns and labels:
[1] = Metabolic rate in human liver microsome; assay type: in vitro ADME; details: pooled human liver microsome 1 mg/mL protein, NADPH-regenerating system, 37° C., 2-60 minutes, HPLC
Description: The compounds of the invention mentioned in Examples and maxacalcitol were compared with each other with respect to the metabolic rate in human liver microsome.
As to the pooled human liver microsome (HHM-0323), those manufactured by Tissue Transformation Technologies were used. A 0.25 M potassium phosphate buffer (pH 7.4) (200 μL), 5 μL of a 250 μM solution of each compound to be tested in DMSO, 50 μL of an NADPH-regenerating system (where 20 mg of β-NADP^+, 70 mg of glucose-6-phosphate, 40 units of glucose-6-phosphate dehydrogenase and 20 mg of magnesium chloride were dissolved in 1 mL of distilled water) and 220 μL of distilled water were added to a microtube and the mixture was subjected to a preincubation for 5 minutes at 37° C. Reaction was started by an addition of 25 μL of human liver microsome (final concentration of protein: 1 mg/mL). Incubation was performed for 2, 10, 30 or 60 minutes and the reaction was stopped by an addition of 500 μL of acetonitrile. After centrifugation at 13,000 rpm for 5 minutes, each test compound in the supernatant (25 μL) was measured by HPLC under the following conditions.
Inertsil ODS-3 (4.6×150 mm; GL Science) was used as a column. With regard to the mobile phase, a solution A (acetonitrile/0.1% aqueous solution of ammonium acetate=10/90) and a solution B (acetonitrile/0.1% aqueous solution of ammonium acetate=90/10) were used under the linear gradient conditions mentioned in Tables 5 to 7. The column temperature, the flow rate and the wavelength for detection were set at 40° C., 1.0 mL/min. and UV 250 or 270 nm, respectively.
The compound mentioned in Example 38 was analyzed under the condition shown in Table 6; the compounds mentioned in Examples 55, 56, 68, 69, 72 and 73 were under the condition shown in Table 7; and the other compounds were under the condition shown in Table 5.
The compounds described in Examples 40, 43 to 48, 50, 55, 56, 58, 60, 61, 63 and 65 to 73 were analyzed under the condition of UV 250 nm; and the other compounds were under the condition of UV 270 nm.
From the HPLC test results as above, the metabolic rate of the test compound was calculated.

[2] = tested on: human acute myelogenous leukemia cell line HL-60; test: Ability to induce differentiation of HL-60 cells (oxygen radical production after phorbol ester, WST-1); assay type: cell-based; details: 72 hours incubation, then WST-1 and phorbol 12,13-didecanoate for 4 hours, absorbance at 450 nm
From the text: It is known that the human acute myelogenous leukemia cell line HL-60is differentiated into neutrophil-like cells by active vitamin D or the like. Thus, the cells after the differentiation begin to express a surface marker such as CD11and CD32and, at the same time, they produce an oxygen radical by stimulation with a phorbol ester or the like. In this test, the above-mentioned property was utilized. As an index of the ability to induce differentiation of the HL-60cells, the amount of the oxygen radical produced by stimulation with a phorbol ester was measured, and the compounds of the invention mentioned in Examples were compared with maxacalcitol with respect to the vitamin D3activity thereof. In use of commercial reagents and kits, if any, the indications attached thereto were referred to.
HL-60cells (supplied from ATCC) were seeded on a 96-well plate at 5×10^3cells/100μL/well and a test compound in two-fold dilution series from 10^−7M was added to the second to the twelfth rows (maximum concentration: the second row). The first row was used for blank. After incubation for 72 hours under a moisturized condition in the presence of 5% CO2 at 37° C. using a CO2 incubator, 10 μL of PBS containing 50 mM WST-1 (manufactured by Takara Bio) and 10 μM phorbol 12,13-didecanoate (manufactured by SIGMA) were added to each well followed by further incubation for 4 hours. Absorbance (reference wavelength: […]) at […] of the WST-1 formazane dye generated by conversion from WST-1 by oxygen radical produced from the differentiated HL-60 cells was measured by a Benchmark microplate reader (manufactured by BioRad). An absorbance meter control software MPM3 (manufactured by BioRad) was used and, from a concentration-absorbance curve, the 50%-maximal effective concentration (hereinafter, referred to as “EC50”) of each was determined by a logistic curve regression.

## C=C1C(=CC=C2CCCC3(C)C2CCC3C(C)OC(=O)CCC(C)(O)C(F)(F)F)CC(O)CC1O (single isomer, unassigned) [Compound of Example 35, (1S,3R,20S)-20-[(4R) or (4S)-5,5,5-trifluoro-4-hydroxy-4-methylpentanoyloxy]-9,10-secopregna-5Z,7E,10(19)-triene-1,3-diol]
[1]
  Metabolic Rate: 43 pmol/min/mg
[2]
  EC50: 0.82 nM

## C=C1C(=CC=C2CCCC3(C)C(C(C)OC(=O)CCC(C)(O)C(F)(F)F)=CCC23)CC(O)CC1O (single isomer, unassigned) [Compound of Example 71, (1S,3R,20S)-20-[(4S) or (4R)-5,5,5-trifluoro-4-hydroxy-4-methylpentanoyloxy]-9,10-secopregna-5Z,7E,10(19),16-tetraene-1,3-diol]
[1]
  Metabolic Rate: 40 pmol/min/mg
[2]
  EC50: 1.1 nM

## C=C1C(=CC=C2CCCC3(C)C2CCC3C(C)OC(=O)CCCC(C)(C)O)CC(O)CC1O [Compound of Example 3, (1S,3R,20S)-20-(5-hydroxy-5-methylhexanoyloxy)-9,10-secopregna-5Z,7E,10(19)-triene-1,3-diol]
[1]
  Metabolic Rate: 22 pmol/min/mg
[2]
  EC50: 4.5 nM

## C=C1C(=CC=C2CCCC3(C)C2CCC3C(C)OC(=O)CC(C)(O)C(F)(F)F)CC(O)CC1O [Compound of Example 4, (1S,3R,20S)-20-(4,4,4-trifluoro-3-hydroxy-3-methylbutanoyloxy)-9,10-secopregna-5Z,7E,10(19)-triene-1,3-diol]
[2]
  EC50: 0.31 nM

## C=C1C(=CC=C2CCCC3(C)C2CCC3C(C)OC(=O)CC(O)C(C)C)CC(O)CC1O [Compound of Example 5, (1S,3R,20S)-20-(3-hydroxy-4-methylpentanoyloxy)-9,10-secopregna-5Z,7E,10(19)-triene-1,3-diol]
[2]
  EC50: 0.86 nM

## C=C1C(=CC=C2CCCC3(C)C2CCC3C(C)OC(=O)CC(O)(C(F)(F)F)C(F)(F)F)CC(O)CC1O [Compound of Example 7, (1S,3R,20S)-20-[4,4,4-trifluoro-3-hydroxy-3-(trifluoromethyl)butanoyloxy]-9,10-secopregna-5Z,7E,10(19)-triene-1,3-diol]
[2]
  EC50: 0.38 nM

## C=C1C(=CC=C2CCCC3(C)C2CCC3C(C)OC(=O)C=CC(C)(C)O)CC(O)CC1O [Compound of Example 8, (1S,3R,20S)-20-[(2E)-4-hydroxy-4-methylpent-2-enoyloxy]-9,10-secopregna-5Z,7E,10(19)-triene-1,3-diol]
[1]
  Metabolic Rate: 38 pmol/min/mg
[2]
  EC50: 3.4 nM

## C=C1C(=CC=C2CCCC3(C)C2CCC3C(C)OC(=O)C=CC(O)(CC)CC)CC(O)CC1O [Compound of Example 10, (1S,3R,20S)-20-[(2E)-4-ethyl-4-hydroxyhex-2-enoyloxy]-9,10-secopregna-5Z,7E,10(19)-triene-1,3-diol]
[1]
  Metabolic Rate: 58 pmol/min/mg
[2]
  EC50: 0.99 nM

## C=C1C(=CC=C2CCCC3(C)C2CCC3C(C)OC(=O)CC(O)(CC)CC)CC(O)CC1O [Compound of Example 12, (1S,3R,20S)-20-(3-ethyl-3-hydroxypentanoyloxy)-9,10-secopregna-5Z,7E,10(19)-triene-1,3-diol]
[2]
  EC50: 1.5 nM

## C=C1C(=CC=C2CCCC3(C)C2CCC3C(C)OC(=O)CCC(O)(CC)CC)CC(O)CC1O [Compound of Example 13, (1S,3R,20S)-20-(4-ethyl-4-hydroxyhexanoyloxy)-9,10-secopregna-5Z,7E,10(19)-triene-1,3-diol]
[1]
  Metabolic Rate: 38 pmol/min/mg
[2]
  EC50: 0.53 nM

## C=C1C(=CC=C2CCCC3(C)C2CCC3C(C)OC(=O)CN(C)CC(C)(C)O)CC(O)CC1O [Compound of Example 19, (1S,3R,20S)-20-[N-(2-hydroxy-2-methylpropyl)-N-methyl-2-aminoacetyloxy]-9,10-secopregna-5Z,7E,10(19)-triene-1,3-diol]
[2]
  EC50: 2.4 nM

## C=C1C(=CC=C2CCCC3(C)C2CCC3C(C)OC(=O)CCC2(O)CCCC2)CC(O)CC1O [Compound of Example 20, (1S,3R,20S)-20-[3-(1-hydroxycyclopentyl)propanoyloxy]-9,10-secopregna-5Z,7E,10(19)-triene-1,3-diol]
[1]
  Metabolic Rate: 39 pmol/min/mg
[2]
  EC50: 1.4 nM

## C=C1C(=CC=C2CCCC3(C)C2CCC3C(C)OC(=O)CC(=O)C(C)(C)O)CC(O)CC1O [Compound of Example 27, (1S,3R,20S)-20-(4-hydroxy-4-methyl-3-oxo-pentanoyloxy)-9,10-secopregna-5Z,7E,10(19)-triene-1,3-diol]
[2]
  EC50: 4.1 nM

## C=C1C(=CC=C2CCCC3(C)C2CCC3C(C)OC(=O)CC(=O)C(O)(CC)CC)CC(O)CC1O [Compound of Example 28, (1S,3R,20S)-20-(4-ethyl-4-hydroxy-3-oxo-hexanoyloxy)-9,10-secopregna-5Z,7E,10(19)-triene-1,3-diol]
[2]
  EC50: 1.7 nM

## C=C1C(=CC=C2CCCC3(C)C2CCC3C(C)OC(=O)CCCC(O)(CC)CC)CC(O)CC1O [Compound of Example 34, (1S,3R,20S)-20-(5-hydroxy-5-ethylheptanoyloxy)-9,10-secopregna-5Z,7E,10(19)-triene-1,3-diol]
[1]
  Metabolic Rate: 36 pmol/min/mg
[2]
  EC50: 4.2 nM

## C=C1C(=CC=C2CCCC3(C)C2CCC3C(C)OC(=O)CCCC(C)(O)C(F)(F)F)CC(O)CC1O [Compound of Example 37, (1S,3R,20S)-20-(6,6,6-trifluoro-5-hydroxy-5-methylhexanoyloxy)-9,10-secopregna-5Z,7E,10(19)-triene-1,3-diol]
[1]
  Metabolic Rate: 36 pmol/min/mg
[2]
  EC50: 1.1 nM

## C=C1C(=CC=C2CCCC3(C)C2CCC3C(C)OC(=O)CC(=O)C(C)(O)C(F)(F)F)CC(O)CC1O [Compound of Example 38, (1S,3R,20S)-20-(5,5,5-trifluoro-4-hydroxy-4-methyl-3-oxopentanoyloxy)-9,10-secopregna-5Z,7E,10(19)-triene-1,3-diol]
[1]
  Metabolic Rate: 33 pmol/min/mg
[2]
  EC50: 2.3 nM

## C=C1C(=CC=C2CCCC3(C)C(C(C)OC(=O)CCC(C)(C)O)=CCC23)CC(O)CC1O [Compound of Example 39, (1S,3R,20S)-20-(4-hydroxy-4-methylpentanoyloxy)-9,10-secopregna-5Z,7E,10(19),16-tetraene-1,3-diol]
[1]
  Metabolic Rate: 26 pmol/min/mg
[2]
  EC50: 1.4 nM

## CC(OC(=O)CCC(C)(C)O)C1CCC2C(=CC=C3CC(O)CC(O)C3)CCCC21C [Compound of Example 40, (1R,3R,20S)-19-nor-20-(4-hydroxy-4-methylpentanoyloxy)-9,10-secopregna-5Z,7E-diene-1,3-diol]
[1]
  Metabolic Rate: 65 pmol/min/mg
[2]
  EC50: 1.6 nM

## C=C1C(O)CC(=CC=C2CCCC3(C)C2CCC3C(C)OC(=O)CCC(C)(C)O)CC1O [Compound of Example 41, (1R,3R,20S)-2-methylene-19-nor-20-(4-hydroxy-4-methylpentanoyloxy)-9,10-secopregna-5Z,7E-diene-1,3-diol]
[1]
  Metabolic Rate: 46 pmol/min/mg
[2]
  EC50: 0.26 nM

## C=C1C(O)CC(=CC=C2CCCC3(C)C2CCC3C(C)OC(=O)CCCC(C)(C)O)CC1O [Compound of Example 57, (1R,3R,20S)-2-methylene-19-nor-20-(5-hydroxy-5-methylhexanoyloxy)-9,10-secopregna-5Z,7E-diene-1,3-diol]
[2]
  EC50: 0.53 nM

## (1S,3R,20S)-20-(5-hydroxy-5-methylheptanoyloxy)-9,10-secopregna-5Z,7E,10(19)-triene-1,3-diol [Compound of Example 11]
[2]
  EC50: 2.2 nM
